Data: US9732119B2, “Immunomodulators” (BRISTOL-MYERS SQUIBB COMPANY, priority 2014, dated 2017)
Positions of bridges follow the written chain, without caps; N, C: chain ends. Non-standard residues stand in square brackets, D forms with d. Residues, ends and D or L forms follow the SMILES beside them. Trp(1-CH2COOH) = N[C@@H](Cc1cn(CC(=O)O)c2ccccc12)C(=O)O; Phe(4-Cl) = N[C@@H](Cc1ccc(Cl)cc1)C(=O)O; Phe(4-F) = N[C@@H](Cc1ccc(F)cc1)C(=O)O; Phe(4-Me) = Cc1ccc(C[C@H](N)C(=O)O)cc1; Hyp = O=C(O)[C@@H]1C[C@@H](O)CN1; Aad = N[C@@H](CCCC(=O)O)C(=O)O; NMeNle = CCCC[C@H](NC)C(=O)O; dOrn = NCCC[C@@H](N)C(=O)O; Pip = O=C(O)[C@@H]1CCCCN1; NMeA = CN[C@@H](C)C(=O)O; Dab = NCC[C@H](N)C(=O)O; Dap = NC[C@H](N)C(=O)O; AEA = NCCOCC(=O)O; Ava = NCCCCC(=O)O; GABA = NCCCC(=O)O

biological target: T1, PD-1-Ig binding to PD-L1-TVMV-His (PD-L1-His) (Homo sapiens, UniProt Q9NZQ7); assay: PD-1/PD-L1 Homogenous Time-Resolved Fluorescence (HTRF) binding assay; conditions: PD-1-Ig (20 nM) / PD-L1-His (10 nM); range classes
T1 construct: hPDL1(19-239)-TVMV-His; made in house; host or cells: HEK293T cells
Outline: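 In dPBS with 0.1% BSA and 0.05% Tween-20, inhibitors were preincubated 15 min with 10 nM PD-L1-His before 20 nM PD-1-Ig was added for another 15 min. Binding read by time-resolved FRET between Eu-cryptate anti-Ig (1 nM) and APC anti-His (20 nM).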

T1 sequence (Q9NZQ7 with tags, fused parts or gaps): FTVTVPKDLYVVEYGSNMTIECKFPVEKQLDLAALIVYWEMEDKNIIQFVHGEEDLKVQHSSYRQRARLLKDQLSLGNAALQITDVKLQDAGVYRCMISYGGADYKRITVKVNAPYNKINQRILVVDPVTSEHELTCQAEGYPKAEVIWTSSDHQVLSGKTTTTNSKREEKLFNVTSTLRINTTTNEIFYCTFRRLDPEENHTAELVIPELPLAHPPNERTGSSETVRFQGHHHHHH

Row | IC50 [nM] | SMILES
1 | 1 to 9.9 | CCCC[C@H]1C(=O)N(C)[C@@H](CCCC)C(=O)N[C@@H](CC(C)C)C(=O)N[C@H](C(N)=O)CNCC(=O)N[C@@H](Cc2ccc(O)cc2)C(=O)N2CCCC[C@H]2C(=O)N[C@@H](CC(=O)O)C(=O)N2CCC[C@H]2C(=O)N[C@@H](CCC(N)=O)C(=O)N[C@@H](CC(C)C)C(=O)N2C[C@H](O)C[C@H]2C(=O)N[C@@H](Cc2c[nH]c3ccccc23)C(=O)N[C@@H](CC(N)=O)C(=O)N[C@@H](Cc2cn(CC(=O)O)c3ccccc23)C(=O)N1C [Example 9034]
2 | 100 to 10000 | CCCC[C@H]1C(=O)N(C)[C@@H](CCCC)C(=O)N[C@@H](CO)C(=O)N[C@H](C(=O)NCC(N)=O)CCCNCC(=O)N[C@@H](Cc2ccc(O)cc2)C(=O)N(C)[C@@H](C)C(=O)N[C@@H](CC(N)=O)C(=O)N2CCC[C@H]2C(=O)N[C@@H](Cc2cnc[nH]2)C(=O)N[C@@H](CCC(N)=O)C(=O)N2C[C@H](O)C[C@H]2C(=O)N[C@@H](Cc2c[nH]c3ccccc23)C(=O)N[C@@H](CO)C(=O)N[C@@H](Cc2c[nH]c3ccccc23)C(=O)N1C [Example 10025]
3 | 10 to 99 | CCCC[C@H]1C(=O)N(C)[C@@H](CCCC)C(=O)N[C@@H](CCC(=O)O)C(=O)N[C@H](C(N)=O)CCCC(=O)N[C@@H](Cc2ccc(F)cc2)C(=O)N2CCCC[C@H]2C(=O)N[C@@H](CC(N)=O)C(=O)N2CCC[C@H]2C(=O)N[C@@H](CN)C(=O)N[C@@H](CC(C)C)C(=O)N2C[C@H](O)C[C@H]2C(=O)N[C@@H](Cc2c[nH]c3ccccc23)C(=O)N[C@@H](CCN)C(=O)N[C@@H](Cc2cn(CC(=O)O)c3ccccc23)C(=O)N1C [Example 10564] ([Phe(4-F)][Pip]NP[Dap]L[Hyp]W[Dab][Trp(1-CH2COOH)][NMeNle][NMeNle]E[Aad]-NH2; lactam N-14)
4 | 1 to 9.9 | CCCC[C@H]1C(=O)N(C)[C@@H](CCCC)C(=O)N[C@@H](CC(C)C)C(=O)NCCC[C@@H](N)C(=O)N[C@@H](Cc2ccc(O)cc2)C(=O)N2CCCC[C@H]2C(=O)N[C@@H](CC(N)=O)C(=O)N2CCC[C@H]2C(=O)N[C@@H](CN)C(=O)N[C@@H](CCC(=O)O)C(=O)N2C[C@H](O)C[C@H]2C(=O)N[C@@H](Cc2c[nH]c3ccccc23)C(=O)N[C@@H](CCN)C(=O)N[C@@H](Cc2cn(CC(=O)O)c3ccccc23)C(=O)N1C [Example 10568] (H-[dOrn]Y[Pip]NP[Dap]E[Hyp]W[Dab][Trp(1-CH2COOH)][NMeNle][NMeNle]L; lactam 1-C)
5 | 1 to 9.9 | CCCC[C@H]1C(=O)N(C)[C@@H](CCCC)C(=O)N[C@@H](CC(C)C)C(=O)N[C@H](C(N)=O)CNCC(=O)N[C@@H](Cc2ccc(O)cc2)C(=O)N2CCCC[C@H]2C(=O)N[C@@H](CC(=O)O)C(=O)N2CCC[C@H]2C(=O)N[C@@H](CCC(N)=O)C(=O)N[C@@H](CCC(=O)O)C(=O)N2C[C@H](O)C[C@H]2C(=O)N[C@@H](Cc2c[nH]c3ccccc23)C(=O)N[C@@H](CC(N)=O)C(=O)N[C@@H](Cc2cn(CC(=O)O)c3ccccc23)C(=O)N1C [Example 9014]
6 | 10 to 99 | CCCC[C@H]1C(=O)N(C)[C@@H](CCCC)C(=O)N[C@@H](CCC(=O)O)C(=O)N[C@H](C(N)=O)CCCC(=O)N[C@@H](Cc2ccc(C)cc2)C(=O)N2CCCC[C@H]2C(=O)N[C@@H](CC(N)=O)C(=O)N2CCC[C@H]2C(=O)N[C@@H](CN)C(=O)N[C@@H](CC(C)C)C(=O)N2C[C@H](O)C[C@H]2C(=O)N[C@@H](Cc2c[nH]c3ccccc23)C(=O)N[C@@H](CCN)C(=O)N[C@@H](Cc2cn(CC(=O)O)c3ccccc23)C(=O)N1C [Example 10562] ([Phe(4-Me)][Pip]NP[Dap]L[Hyp]W[Dab][Trp(1-CH2COOH)][NMeNle][NMeNle]E[Aad]-NH2; lactam N-14)
7 | 1 to 9.9 | CCCC[C@H]1C(=O)N(C)[C@@H](CCCC)C(=O)N[C@@H](CC(C)C)C(=O)NCCCCC(=O)N[C@@H](Cc2ccc(O)cc2)C(=O)N(C)[C@@H](C)C(=O)N[C@@H](CC(N)=O)C(=O)N2CCC[C@H]2C(=O)N[C@@H](CN)C(=O)N[C@@H](CCC(=O)O)C(=O)N2C[C@H](O)C[C@H]2C(=O)N[C@@H](Cc2c[nH]c3ccccc23)C(=O)N[C@@H](CCN)C(=O)N[C@@H](Cc2cn(CC(=O)O)c3ccccc23)C(=O)N1C [Example 10506] (cyclo([Ava]Y[NMeA]NP[Dap]E[Hyp]W[Dab][Trp(1-CH2COOH)][NMeNle][NMeNle]L))
8 | 1 to 9.9 | CCCC[C@H]1C(=O)N(C)[C@@H](CCCC)C(=O)N[C@@H](C)C(=O)N[C@H](C(=O)NCC(N)=O)CCCNCC(=O)N[C@@H](Cc2ccc(O)cc2)C(=O)N(C)[C@@H](C)C(=O)N[C@@H](CC(=O)O)C(=O)N2CCC[C@H]2C(=O)N[C@@H](Cc2cnc[nH]2)C(=O)N[C@@H](CCC(N)=O)C(=O)N2C[C@H](O)C[C@H]2C(=O)N[C@@H](Cc2c[nH]c3ccccc23)C(=O)N[C@@H](CO)C(=O)N[C@@H](Cc2cn(CC(=O)O)c3ccccc23)C(=O)N1C [Example 10016]
9 | 100 to 10000 | CCCC[C@H]1C(=O)N(C)[C@@H](CCCC)C(=O)N[C@@H](CC(C)C)C(=O)NCCOCC(=O)N[C@@H](Cc2ccccc2)C(=O)N(C)[C@@H](C)C(=O)N[C@@H](CC(C)C)C(=O)N2CCC[C@H]2C(=O)NCC(=O)N[C@@H](CC(C)C)C(=O)N2CCC[C@H]2C(=O)N[C@@H](Cc2ccccc2)C(=O)NCC(=O)N[C@@H](Cc2ccccc2)C(=O)N1C [Example 10500] (cyclo([AEA]F[NMeA]LPGLPFGF[NMeNle][NMeNle]L))
10 | 10 to 99 | CCCC[C@H]1C(=O)N(C)[C@@H](CCCC)C(=O)N[C@@H](CC(C)C)C(=O)NCCCCC(=O)N[C@@H](Cc2ccc(Cl)cc2)C(=O)N2CCCC[C@H]2C(=O)N[C@@H](CC(N)=O)C(=O)N2CCC[C@H]2C(=O)N[C@@H](CN)C(=O)N[C@@H](CC(C)C)C(=O)N2C[C@H](O)C[C@H]2C(=O)N[C@@H](Cc2c[nH]c3ccccc23)C(=O)N[C@@H](CCN)C(=O)N[C@@H](Cc2cn(CC(=O)O)c3ccccc23)C(=O)N1C [Example 10537] (cyclo([Ava][Phe(4-Cl)][Pip]NP[Dap]L[Hyp]W[Dab][Trp(1-CH2COOH)][NMeNle][NMeNle]L))
11 | 10 to 99 | CCCC[C@H]1C(=O)N(C)[C@@H](CCCC)C(=O)N[C@@H](CC(C)C)C(=O)N[C@H](C(N)=O)CNCC(=O)N[C@@H](Cc2ccc(OC)cc2)C(=O)N2CCCC[C@H]2C(=O)N[C@@H](CC(N)=O)C(=O)N2CCC[C@H]2C(=O)N[C@@H](CN)C(=O)N[C@@H](CC(C)C)C(=O)N2C[C@H](O)C[C@H]2C(=O)N[C@@H](Cc2c[nH]c3ccccc23)C(=O)N[C@@H](CCN)C(=O)N[C@@H](Cc2cn(CC(=O)O)c3ccccc23)C(=O)N1C [Example 1042]
12 | 1 to 9.9 | CCCC[C@H]1C(=O)N(C)[C@@H](CCCC)C(=O)N[C@@H](CCC(=O)O)C(=O)N[C@H](C(N)=O)CCCC(=O)N[C@@H](Cc2ccc(O)cc2)C(=O)N2CCCC[C@H]2C(=O)N[C@@H](CC(N)=O)C(=O)N2CCC[C@H]2C(=O)N[C@@H](CN)C(=O)N[C@@H](CC(C)C)C(=O)N2C[C@H](O)C[C@H]2C(=O)N[C@@H](Cc2c[nH]c3ccccc23)C(=O)N[C@@H](CCN)C(=O)N[C@@H](Cc2cn(CC(=O)O)c3ccccc23)C(=O)N1C [Example 10561] (Y[Pip]NP[Dap]L[Hyp]W[Dab][Trp(1-CH2COOH)][NMeNle][NMeNle]E[Aad]-NH2; lactam N-14)
13 | 10 to 99 | CCCC[C@H]1C(=O)N(C)[C@@H](CCCC)C(=O)N[C@@H](CC(C)C)C(=O)N[C@H](C(N)=O)COCC(=O)N[C@@H](Cc2ccc(OC)cc2)C(=O)N2CCCC[C@H]2C(=O)N[C@@H](CC(N)=O)C(=O)N2CCC[C@H]2C(=O)N[C@@H](CN)C(=O)N[C@@H](CC(C)C)C(=O)N2C[C@H](O)C[C@H]2C(=O)N[C@@H](Cc2c[nH]c3ccccc23)C(=O)N[C@@H](CCN)C(=O)N[C@@H](Cc2cn(CC(=O)O)c3ccccc23)C(=O)N1C [Example 10528]
14 | 10 to 99 | CCCC[C@H]1C(=O)N(C)[C@@H](CCCC)C(=O)N[C@@H](CC(C)C)C(=O)NCCC[C@@H](N)C(=O)N[C@@H](Cc2ccc(Cl)cc2)C(=O)N2CCCC[C@H]2C(=O)N[C@@H](CC(N)=O)C(=O)N2CCC[C@H]2C(=O)N[C@@H](CN)C(=O)N[C@@H](CC(C)C)C(=O)N2C[C@H](O)C[C@H]2C(=O)N[C@@H](Cc2c[nH]c3ccccc23)C(=O)N[C@@H](CCN)C(=O)N[C@@H](Cc2cn(CC(=O)O)c3ccccc23)C(=O)N1C [Example 10559] (H-[dOrn][Phe(4-Cl)][Pip]NP[Dap]L[Hyp]W[Dab][Trp(1-CH2COOH)][NMeNle][NMeNle]L; lactam 1-C)
15 | 100 to 10000 | CCCC[C@H]1C(=O)N(C)[C@@H](CCCC)C(=O)N[C@@H](CC(C)C)C(=O)NCCCC(=O)NCC(=O)N[C@@H](Cc2ccc(O)cc2)C(=O)N(C)[C@@H](C)C(=O)N[C@@H](CC(N)=O)C(=O)N2CCC[C@H]2C(=O)N[C@@H](Cc2c[nH]cn2)C(=O)N[C@@H](CC(C)C)C(=O)N2C[C@H](O)C[C@H]2C(=O)N[C@@H](Cc2c[nH]c3ccccc23)C(=O)NCC(=O)N[C@@H](Cc2c[nH]c3ccccc23)C(=O)N1C [Example 5005] (cyclo(GW[NMeNle][NMeNle]L[GABA]GY[NMeA]NPHL[Hyp]W))
16 | 1 to 9.9 | CCCC[C@H]1C(=O)N(C)[C@@H](CCCC)C(=O)N[C@@H](CC(C)C)C(=O)NCCCCC(=O)N[C@@H](Cc2ccc(OC)cc2)C(=O)N2CCCC[C@H]2C(=O)N[C@@H](CC(N)=O)C(=O)N2CCC[C@H]2C(=O)N[C@@H](CN)C(=O)N[C@@H](CCC(=O)O)C(=O)N2C[C@H](O)C[C@H]2C(=O)N[C@@H](Cc2c[nH]c3ccccc23)C(=O)N[C@@H](CCN)C(=O)N[C@@H](Cc2cn(CC(=O)O)c3ccccc23)C(=O)N1C [Example 10542] (cyclo([Ava]Y(Me)[Pip]NP[Dap]E[Hyp]W[Dab][Trp(1-CH2COOH)][NMeNle][NMeNle]L))
17 | 1 to 9.9 | CCCC[C@H]1C(=O)N(C)[C@@H](CCCC)C(=O)N[C@@H](CC(C)C)C(=O)NCCCCC(=O)N[C@@H](Cc2ccc(C)cc2)C(=O)N2CCCC[C@H]2C(=O)N[C@@H](CC(N)=O)C(=O)N2CCC[C@H]2C(=O)N[C@@H](CN)C(=O)N[C@@H](CCC(=O)O)C(=O)N2C[C@H](O)C[C@H]2C(=O)N[C@@H](Cc2c[nH]c3ccccc23)C(=O)N[C@@H](CCN)C(=O)N[C@@H](Cc2cn(CC(=O)O)c3ccccc23)C(=O)N1C [Example 10541] (cyclo([Ava][Phe(4-Me)][Pip]NP[Dap]E[Hyp]W[Dab][Trp(1-CH2COOH)][NMeNle][NMeNle]L))
